Values joined by “and” are separate entries in the source; they are usually repeats but may differ in a detail not shown here. Equal values may be shown once. After the bases stand the sugars from the 5' end (letter, count) and the backbone: PS all phosphorothioate, else s phosphorothioate and o phosphodiester by linkage. Methylation of C is not given here. e = 2'-O-(2-methoxyethyl) (MOE); k = constrained ethyl (cEt); d = 2'-deoxy (DNA)
Biological target: IRF4
Settings: ASO

Sequence | target mRNA inhibition (SK-MEL-28, 4 µM) | target mRNA inhibition (MM.1R, 1 µM) | other results
TTCCATAGAGCCAGAG (sugars k3 d10 k3, PS) | 37% | – | –
ATAACATGAGAGTGTT (sugars k3 d10 k3, PS) | – | -17% | –
TCCGAAAAGACTGGAG (sugars k3 d10 k3, PS) | – | -7% | –
GCAGTAAACGCAAGTC (sugars k3 d10 k3, PS) | 54% | – | –
TCTTCCAGCAAGACCT (sugars k3 d10 k3, PS) | 28% | – | –
AGACAAATCTTCTGCC (sugars k3 d10 k3, PS) | -4% | – | –
ATAGCTGTTTATTTCC (sugars k4 d8 k4, PS) | 59% | – | target mRNA inhibition (MM.1R, 0.074 µM): 7%; target mRNA inhibition (MM.1R, 0.222 µM): 6%; target mRNA inhibition (MM.1R, 0.666 µM): 11%; target mRNA inhibition (MM.1R, 2 µM): 32%; target mRNA inhibition (SK-MEL-28, 0.185 µM): -2% and -10% and -3%; target mRNA inhibition (SK-MEL-28, 15 µM): 81% and 79% and 91%
ATGTGTATTACTCTTA (sugars kkdddddddddkekek, PS) | – | 54% and 49% | –
GATCATAAAGGACAAT (sugars k3 d10 k3, PS) | 30% | – | –
AAAAGTAACTGACACG (sugars k3 d10 k3, PS) | 61% | – | –
GAGAATTCCAAACCTT (sugars k3 d10 k3, PS) | 76% | 15% | target mRNA inhibition (MM.1R, 0.0625 µM): 6%; target mRNA inhibition (MM.1R, 0.074 µM): 1%; target mRNA inhibition (MM.1R, 0.222 µM): 13%; target mRNA inhibition (MM.1R, 0.25 µM): 5%; target mRNA inhibition (MM.1R, 0.666 µM): 38%; target mRNA inhibition (MM.1R, 2 µM): 69%; target mRNA inhibition (MM.1R, 4 µM): 55%
ACTCATAGGTGTACAC (sugars k3 d10 k3, PS) | 45% | – | –
AGCTCAATAATCTCCC (sugars k3 d10 k3, PS) | – | 6% | –
TAGCATTATCTACCTC (sugars k3 d10 k3, PS) | 66% | – | –
GTAAGATCTCCATGGT (sugars k3 d10 k3, PS) | – | 17% | –
TTCCATAGATCAACAT (sugars k3 d10 k3, PS) | 44% | – | –
ACAGTAAGAGGGCAGT (sugars k3 d10 k3, PS) | 84% | – | –
AGTCTTTTCGCATAGA (sugars k3 d10 k3, PS) | 45% | – | –
GTCATATGGCTAAACC (sugars k3 d10 k3, PS) | – | 23% | –
AAGGTTCCTGTCACCT (sugars k3 d10 k3, PS) | -2% | – | –
TAACAGGCTATCAGGA (sugars k3 d10 k3, PS) | 26% | – | –
TCCAACAGGCGGACAC (sugars k3 d10 k3, PS) | 29% | – | –
AGGAAACCGCTGGCAG (sugars k3 d10 k3, PS) | 56% | – | –

Sequence | target mRNA inhibition (SK-MEL-28, 4 µM) | target mRNA inhibition (MM.1R, 1 µM) | other results
GGTTTATTAGCTTTCT (sugars k3 d10 k3, PS) | -1% | – | –
AGTGATGTCAGGTTTT (sugars k3 d10 k3, PS) | 72% | – | –
TACTGTTACCGATGCT (sugars kddddddddddkekek, PS) | – | 10% and 2% | –
TCATTAGAAAGCCCTC (sugars k3 d10 k3, PS) | – | -19% | –
GCATCGAGATCAGTCT (sugars k3 d10 k3, PS) | 57% | – | –
CGTGTGCTTGCCAAGC (sugars k2 d9 e3 k2, PS) | – | 60% and 66% | –
GCATGAGGGTGACACA (sugars k3 d10 k3, PS) | 42% | – | –
GTGATGTCAGGTTTTC (sugars k3 d9 k3 e1, PS) | – | 71% | target mRNA inhibition (MM.1R, 0.074 µM): 16%; target mRNA inhibition (MM.1R, 0.222 µM): 41%; target mRNA inhibition (MM.1R, 0.666 µM): 66%; target mRNA inhibition (MM.1R, 2 µM): 85%
GCTGAGATAAGAAGCA (sugars k3 d10 k3, PS) | 32% | – | –
TGTTACCGATGCTTCA (sugars kkdddddddddekeke, PS) | – | 35% and 49% | –
AAACAGCCCACTGAGT (sugars k3 d10 k3, PS) | 11% | – | –
CGTAGTCACGCAATGG (sugars k3 d10 k3, PS) | – | 15% | –
GAGGAAGCATAGAACA (sugars k3 d10 k3, PS) | 18% | – | –
GCCAACTTATAGCACT (sugars k3 d10 k3, PS) | – | – | target mRNA inhibition (MM.1R, 0.0625 µM): 17%; target mRNA inhibition (MM.1R, 0.25 µM): -17%; target mRNA inhibition (MM.1R, 4 µM): 8%
TTCTAGGTAATCTGTA (sugars k3 d10 k3, PS) | 38% | – | –
GGCTATCAGGATCTCA (sugars k3 d10 k3, PS) | 45% | – | –
GCAAGCTATATTAAAG (sugars k3 d10 k3, PS) | 71% | -19% | target mRNA inhibition (MM.1R, 0.0625 µM): 1%; target mRNA inhibition (MM.1R, 0.074 µM): 17%; target mRNA inhibition (MM.1R, 0.222 µM): 26%; target mRNA inhibition (MM.1R, 0.25 µM): 1%; target mRNA inhibition (MM.1R, 0.666 µM): 41%; target mRNA inhibition (MM.1R, 2 µM): 82%; target mRNA inhibition (MM.1R, 4 µM): 1%
ACACTTTTAGAGAGGA (sugars k3 d9 k3 e1, PS) | – | 29% | –
AATGAGGAAGCCGTTC (sugars k3 d10 k3, PS) | 47% | – | –
ATGTTAGCCAATTCCT (sugars k2 d9 e3 k2, PS) | – | 17% and 6% | –
TTCCAACAATAGCAAC (sugars k3 d10 k3, PS) | 46% | – | –
GGGATTATATACTGGT (sugars kdddddddddkekeke, PS) | – | 29% | –
ACCTTTTTTGGCTCCC (sugars k3 d10 k3, PS) | 21% | – | –

Sequence | target mRNA inhibition (SK-MEL-28, 4 µM) | target mRNA inhibition (MM.1R, 1 µM) | other results
AGTATGAGAAACGGCC (sugars k3 d10 k3, PS) | 62% | – | –
CGTGGAAACGAGAACG (sugars k3 d10 k3, PS) | 29% | – | –
GGAAGCACTGGCATCG (sugars k3 d10 k3, PS) | 55% | – | –
ACAGGCACGGCTTCAG (sugars k3 d10 k3, PS) | 64% | – | –
TCCTAAATCACCCTGG (sugars k3 d10 k3, PS) | 21% | – | –
AGCCAAGGAGGCGGGC (sugars k3 d10 k3, PS) | -1% | – | –
GTAGTATGAGAAACGG (sugars kkdddddddddkekek, PS) | – | 50% | –
GACATTACTAGATTGT (sugars k3 d10 k3, PS) | 70% | – | –
CTGCTTGAGGTTTTCC (sugars e1 k2 d9 k2 e2, PS) | – | 52% | target mRNA inhibition (MM.1R, 0.074 µM): 6%; target mRNA inhibition (MM.1R, 0.222 µM): 21%; target mRNA inhibition (MM.1R, 0.666 µM): 38%; target mRNA inhibition (MM.1R, 2 µM): 60%
ACGGAAGTTTACACTG (sugars k3 d10 k3, PS) | 77% | – | –
TGACATCATTTAGGTA (sugars k3 d10 k3, PS) | 54% | – | –
GCAGCCAAGGATAACC (sugars k3 d10 k3, PS) | – | 6% | –
CGCCACCTGATGCCTC (sugars k3 d10 k3, PS) | 30% | – | –
TTATATACTGGTTGGT (sugars k3 d10 k3, PS) | 49% | – | –
GAAGGATGATCAGCTT (sugars k3 d10 k3, PS) | 26% | – | –
TGATGTGATAGCTGAG (sugars k2 d9 e3 k2, PS) | – | 47% | –
GCTCAACCTGGAAGGA (sugars k3 d10 k3, PS) | 25% | – | –
ACGCCTTAATGTTCAG (sugars k3 d10 k3, PS) | 77% | – | –
TAGAGAACATTACGAG (sugars k3 d10 k3, PS) | 60% | – | –
TGGAACTCATAGGTGT (sugars k3 d10 k3, PS) | 62% | – | –
GTTCGCTGAATTGTCA (sugars k3 d10 k3, PS) | 37% | – | –
CCCAAAGGGCATCCTC (sugars k3 d10 k3, PS) | 41% | – | –
ATACATCACTGCAGTT (sugars k3 d10 k3, PS) | 36% | – | –

Sequence | target mRNA inhibition (SK-MEL-28, 4 µM) | target mRNA inhibition (MM.1R, 1 µM) | other results
GGCCAAATTGCAAAGG (sugars k3 d10 k3, PS) | 48% | – | –
ACTTTTAGAGAGGAGA (sugars k3 d9 k3 e1, PS) | – | 36% | –
ACTTTTAGAGAGGAGA (sugars kkdddddddddkekek, PS) | – | 40% | –
ACGGAAGTTTACACTG (sugars kkdddddddddkdkdk, PS) | – | -2% | –
TCACTTGCCGCCGCCT (sugars k3 d10 k3, PS) | 49% | – | –
ACCCACCCAGTGTCTG (sugars k3 d10 k3, PS) | 18% | – | –
GTTGGAGCAGCCATAG (sugars k3 d10 k3, PS) | 31% | – | –
GACACTTTTAGAGAGG (sugars kkdddddddddkekek, PS) | – | 17% | –
ACACACCAGGTTAAAC (sugars k3 d10 k3, PS) | 12% | – | –
TAGCATTCTTACAGCA (sugars k3 d10 k3, PS) | 57% | 7% and 20% | target mRNA inhibition (MM.1R, 0.0625 µM): -4% and 15%; target mRNA inhibition (MM.1R, 0.074 µM): 0%; target mRNA inhibition (MM.1R, 0.222 µM): 34%; target mRNA inhibition (MM.1R, 0.25 µM): -7% and -4%; target mRNA inhibition (MM.1R, 0.666 µM): 27%; target mRNA inhibition (MM.1R, 2 µM): 52%; target mRNA inhibition (MM.1R, 4 µM): 26% and 40%
CCAGCTTCGGTCGAGG (sugars k3 d10 k3, PS) | – | -5% | –
GAAACCCTCATCACCG (sugars k3 d10 k3, PS) | – | -38% | –
TGCTTGAGGTTTTCCT (sugars kddddddddddkekek, PS) | – | 36% | –
AATGCATAACACGGTG (sugars k3 d10 k3, PS) | 49% | – | –
AGAACATTACGAGAGG (sugars k3 d10 k3, PS) | – | 41% and 51% | target mRNA inhibition (MM.1R, 0.0625 µM): 2% and 12%; target mRNA inhibition (MM.1R, 0.25 µM): 16% and 20%; target mRNA inhibition (MM.1R, 4 µM): 65% and 66%
AGTCACGCAATGGCAA (sugars k3 d10 k3, PS) | 50% | – | –
AGCTGTATTTATGCCC (sugars k3 d10 k3, PS) | 58% | – | –
TCTATAGTGTTCCAGG (sugars kkddddddddddkeke, PS) | – | 66% | target mRNA inhibition (MM.1R, 0.074 µM): 15%; target mRNA inhibition (MM.1R, 0.222 µM): 32%; target mRNA inhibition (MM.1R, 0.666 µM): 58%; target mRNA inhibition (MM.1R, 2 µM): 83%
CTATAGTGTTCCAGGA (sugars kkdddddddddekeke, PS) | – | 48% | –
ACAATACTGTAAGGGC (sugars k3 d10 k3, PS) | 75% and 68% | – | –
CCCCAGGGCCCTCGGT (sugars k3 d10 k3, PS) | 18% | – | –
GCTGAGATAGGAAGCA (sugars k3 d10 k3, PS) | 19% | – | –
GCGAATGTGCCTTGTG (sugars k3 d10 k3, PS) | – | 12% | –

Source: the OligoGym collection
